Counter-ions that a name gives are not always drawn. No end group written: not given here. *: point of attachment. Myristoyl = CCCCCCCCCCCCCC(=O)*
What was measured:
Type in all cases: cell-based, human
hBASMCs = assay: Increase in [Ca2+]i evoked directly by stimuli in fluo-4-loaded hBASMCs; conditions: for increase in [Ca2+]i evoked by the substance itself: hBASMCs from donors 1-3, PGE2 and sulprostone in Ca2+-free HBS; for effect of removal of extracellular Ca2+ on the peak increase in [Ca2+]i evoked by the stimulus: HBS vs Ca2+-free HBS (2.5 mM BAPTA added 37 s before the stimulus)
Experimental: (§1) Two methods were used to measure [Ca^2+]i in populations of hBASMCs. For measurements using a FlexStation III plate-reader (Molecular Devices, Sunnyvale, CA, USA), hBASMCs were seeded into 96-well plates (10^4 cells per well). After about 4 days, when the cells were confluent, the medium was replaced with SMGM-2 without serum or growth factor supplements, and the cells were used after a further 24 h. This period in serum-free medium increased by about 2-fold the amplitude of the increases in [Ca^2+]i evoked by histamine (results not shown). Cells were washed with HEPES-buffered saline (HBS: 135 mM NaCl, 5.9 mM KCl, 1.2 mM MgCl2, 1.5 mM CaCl2, 11.6 mM HEPES, 11.5 mM D-glucose, pH 7.3), and loaded with fluo-4 by incubation with fluo-4-AM (2 μM) in HBS (100 μL per well) containing pluronic F127 (0.02%, v/v) and probenecid (2.5 mM). After 1 h at 20 °C, the medium was replaced with HBS (100 μL per well) containing probenecid (2.5 mM). After a further incubation at 20 °C for 1 h, the medium was replaced with HBS (60–80 μL per well) or nominally Ca^2+-free HBS, and the cells were used immediately for experiments at 20 °C. In some experiments, BAPTA (2.5 mM) was added to HBS during the recording; this reduced the free [Ca^2+] of the HBS to ∼120 nM without affecting the pH. Drug additions (20 μL at 4 or 5 times the final concentration) were added automatically. Fluorescence from fluo-4 (excitation 485 nm, emission 525 nm) was recorded at 1.44-s intervals using Softmax Pro 5.4 (Molecular Devices). Fluorescence was calibrated to [Ca^2+]i from: [Ca^2+]i=KDCa×(F−Fmin/Fmax−F) where, KDCa is the equilibrium dissociation constant of fluo-4 for Ca^2+ (345 nM), F is the recorded fluorescence, and Fmin and Fmax are the fluorescence values recorded after addition of triton-X-100 (0.1%, v/v) with either BAPTA (10 mM, Fmin) or CaCl2 (10 mM, Fmax). Although treatment with triton-X-100 releases fluo-4 from cells into the medium, the fluo-4 fluorescence is captured with the same efficiency whether it is trapped within cells or dispersed within the small volume of the wells (unpublished observations). Fmax was determined for each well at the end of an experiment, and the average value was used for each column of 8 wells. Fmin was determined from parallel wells on each plate.
(§2) For measurements of [Ca^2+]i using an FDSS 7000 FLIPR (Hamamatsu), hBASMCs were seeded into 384-well plates (8000 cells per well) in 20 μL of SMGM-2 containing 5% serum. After 24 h, the medium was replaced with 15 μL of serum-free SMGM-2, and after a further 6 h the cells were loaded with Ca^2+ indicator by addition of FLIPR calcium 4 assay kit (Molecular Devices) supplemented with probenecid (2.5 mM). The exact composition of this ‘no-wash’ indicator kit is not disclosed by the manufacturer, but it contains fluo-4-AM and components that reduce background fluorescence. The manufacture’s stock solution was diluted 10-fold into HBSS containing BSA (0.1%, w/v) and HEPES (20 mM); 5 μL of this solution was then added to each well (containing 15 μL of serum-free SMGM-2). After 2 h at 37 °C in humidified air containing 5% CO2, the plate was used for experiments at 20 °C. Most additions (5 μL) were prepared in HBSS supplemented with HEPES (20 mM) and BSA (0.1%, w/v). For more prolonged incubations, drugs were diluted in the initial loading medium (to avoid changes in dye-loading during the ‘no wash’ protocol). Fluorescence signals (excitation at 480 nm, emission at 540 nm) were calibrated to [Ca^2+]i after measurement of Fmin and Fmax uniquely for each well, using a KDCa = 345 nM.
(§3) All concentration-effect relationships were determined by addition of different drug concentrations to individual wells in the same multi-well plate, rather than by sequential additions to the same well. […]

[1] = system: histamine-evoked Ca^2+ signals in hBASMCs; assay: Histamine-evoked Ca2+ signals in populations of fluo-4-loaded hBASMCs; conditions: for effect on the inhibition of histamine-evoked Ca2+ signals by a maximally effective concentration of isoproterenol / effect on the sensitivity to isoproterenol of histamine-evoked Ca2+ signals: inhibitor pre-treatment 30 min, then isoproterenol 1 min; for effect on histamine-evoked Ca2+ signals: pre-treatment: 8-Br-cGMP, IBMX 20 min, forskolin 10 μM, NKH477 10 μM, butaprost 10 μM, TCS2510 1 μM 5 min
Experimental: as §1, §2, §3

[2] = system: intracellular cAMP in hBASMCs; assay: Intracellular cAMP in hBASMCs by [3H]-adenine labeling; conditions: 5 min in HBS, TCS2510 1 μM; for effect on intracellular cAMP: PGE2 10 μM, butaprost 10 μM, [3H]-adenine labeling
Experimental: hBASMCs in 24-well plates (50,000 cells per well) were grown to confluence. The medium was then replaced with serum-free SMGM-2, and after 24 h this was supplemented with [^3H]-adenine (1 μCi per well, 18.4 Ci·mmol^−1). After 2 h at 37 °C in humidified air with 5% CO2, the medium was removed, and the cells were washed twice with HBS. The cells were stimulated at 20 °C in HBS. Incubations were terminated by removal of the medium, addition of ice-cold trichloroacetic acid (5%, 1 mL) and rapid freezing. This protocol ensured that only intracellular [^3H]-cAMP was detected. [^3H]-adenine nucleotides were separated by column chromatography, and the activity was determined by liquid scintillation counting using Ultra-gold scintillant. Results are presented as [^3H]-cAMP activity as a percentage of the sum of the activities of the fractions containing [^3H]-cAMP, [^3H]-ATP, [^3H]-ADP and [^3H]-AMP; henceforth, reported as [^3H]-cAMP (%).

Compound: 18:1 lysophosphatidic acid [LPA]
- increase in [Ca2+]i evoked by the substance itself (hBASMCs): Cells from all three donors responded

Compound: O=C(Nc1ncnc2c1ncn2[C@@H]1O[C@@H]2COP(=O)(O)OC2C1O)c1ccccc1 (stereo in doubt) [6-Bnz-cAMP]
- amplitude of the Ca2+ signals evoked by histamine, % of paired controls ([1]; 500 μM, 20 min pre-treatment, histamine 10 μM, n = 5): 54 ± 4%

Compound: Nc1ncnc2c1nc(Br)n2[C@@H]1O[C@@H]2COP(=O)(O)O[C@H]2[C@H]1O [8-Br-cAMP]
- pIC50 for inhibition of histamine-evoked Ca2+ signals ([1]; pre-treatment 20 min, histamine 10 μM, n = 6): 3.32 ± 0.16

Compound: CO[C@@H]1[C@@H]2OP(=O)(O)OC[C@H]2O[C@H]1n1c(Sc2ccc(Cl)cc2)nc2c(N)ncnc21 [8-pCPT-2′-O-Me-cAMP]
- amplitude of the Ca2+ signals evoked by histamine, % of paired controls ([1]; 300 μM pre-treatment, histamine 10 μM): 103 ± 8%

Compound: Nc1ncnc2c1ncn2[C@@H]1O[C@H](COP(=O)(O)OP(=O)(O)OP(=O)(O)O)[C@@H](O)[C@H]1O [ATP]
- increase in [Ca2+]i evoked by the substance itself (hBASMCs): cells from only one donor responded robustly to ATP (donor 3)

Compound: Cc1ccc(S(=O)(=O)c2c(C)cc(C)cc2C)cc1 [ESI-05, 4-methylphenyl-2,4,6-trimethylsulphone]
- effect on the concentration-dependent inhibition of histamine-evoked Ca2+ signals by isoproterenol ([1]; ESI-05 25 μM, 30 min in HBS, histamine 10 μM added 1 min after isoproterenol, n = 9): had no effect

Compound: Cl.Cl.O=S(=O)(NCCNCC=Cc1ccc(Br)cc1)c1cccc2cnccc12 [H89, N-[2-[[3-(4-bromophenyl)-2-propenyl]amino]ethyl]-5-isoquinolinesulfonamide dihydrochloride]
- effect on the inhibition of histamine-evoked Ca2+ signals by a maximally effective concentration of isoproterenol ([1]; histamine 10 μM, n = 9): had no significant effect
- effect on the sensitivity to isoproterenol of histamine-evoked Ca2+ signals ([1]; histamine 10 μM, n = 9): significantly reduced the sensitivity to isoproterenol

Compound: CCCCCCOC(=O)[C@]1(O)C[C@@H]2O[C@@]1(C)n1c3ccccc3c3c4c(c5c6ccccc6n2c5c31)C(=O)NC4 [KT5720, (9R,10S,12S)-2,3,9,10,11,12-hexahydro-10-hydroxy-9-methyl-1-oxo-9,12-epoxy-1H-diindolo[1,2,3-fg:3′,2′,1′-kl]pyrrolo[3,4-i][1,6]benzodiazocine-10-carboxylic acid, hexyl ester]
- effect on the inhibition of histamine-evoked Ca2+ signals by a maximally effective concentration of isoproterenol ([1]; histamine 10 μM, n = 9): had no significant effect
- effect on the sensitivity to isoproterenol of histamine-evoked Ca2+ signals ([1]; histamine 10 μM, n = 9): Neither KT5720 nor PKI-myr significantly affected

Compound: C=C[C@@]1(C)CC(=O)[C@]2(O)[C@@]3(C)[C@@H](O)CCC(C)(C)[C@@H]3C(OC(=O)CCN(C)C)[C@H](OC(C)=O)[C@@]2(C)O1.Cl (stereo partly drawn) [NKH477, N,N-dimethyl-(3R,4aR,5S,6aS,10S,10aR,10bS)-5-(acetyloxy)-3-ethenyldodecahydro-10,10b-dihydroxy-3,4a,7,7,10a-pentamethyl-1-oxo-1H-naphtho[2,1-b]pyran-6-yl ester β-alanine hydrochloride]
- effect on histamine-evoked Ca2+ signals [1]: mimicked the effect of isoproterenol

Compound: CCCCC[C@H](O)/C=C/[C@H]1[C@H](O)CC(=O)[C@@H]1C/C=C\CCCC(=O)O [PGE2, prostaglandin E2]
- increase in [Ca2+]i evoked by the substance itself (hBASMCs): directly evoked a significant increase in [Ca^2+]i
- effect on intracellular cAMP [2]: stimulated cAMP accumulation

Compound: Nc1ncnc2c1nc(Sc1ccc(Cl)cc1)n2[C@@H]1O[C@@H]2COP(O)(=S)O[C@H]2[C@H]1O (stereo partly shown) [Rp-8-CPT-cAMPS, Rp-8-CPT-cAMPs]
- effect on the inhibition of histamine-evoked Ca2+ signals by a maximally effective concentration of isoproterenol ([1]; histamine 10 μM, n = 9): had no significant effect
- effect on the sensitivity to isoproterenol of histamine-evoked Ca2+ signals ([1]; histamine 10 μM, n = 9): significant decrease in the sensitivity to isoproterenol, but the effect was small

Compound: O=C1CC[C@H](C=C[C@@H](O)Cc2ccccc2)N1CCCCCCc1nn[nH]n1 [TCS2510, (5R)-5-[(3S)-3-hydroxy-4-phenyl-1-buten-1-yl]-1-[6-(2H-tetrazol-5-yl)hexyl]-2-pyrrolidinone]
- effect on histamine-evoked Ca2+ signals [1]: inhibited the Ca^2+ signals evoked by histamine
- increase in [Ca2+]i evoked by the substance itself (hBASMCs): Neither butaprost nor TCS2510 evoked an increase in [Ca^2+]i
- effect on intracellular cAMP [2]: stimulated formation of cAMP
- production of cAMP at maximal concentration compared with forskolin, NKH477, isoproterenol or butaprost ([2]; equally effective in inhibiting histamine-evoked Ca2+ signals): far less

Compound: Cn1c(=O)c2c(ncn2C)n(C)c1=O [caffeine]
- increase in [Ca2+]i evoked by the substance itself (hBASMCs): A lack of response

Compound: C[N+](C)(C)CCOC(N)=O [carbachol, carbamylcholine chloride]
- effect of removal of extracellular Ca2+ on the peak increase in [Ca2+]i evoked by the stimulus (hBASMCs): unaffected
- increase in [Ca2+]i evoked by the substance itself (hBASMCs): cells from only one other donor responded robustly to carbachol (donor 2)

Compound: NCCc1c[nH]cn1 [histamine, Histamine dihydrochloride]
- effect of removal of extracellular Ca2+ on the peak increase in [Ca2+]i evoked by the stimulus (hBASMCs): unaffected
- EC50 (hBASMCs; Homo sapiens, histamine alone, HBSS, n = 7, read-out: sensitivity to histamine (pEC50) (converted)): 1050 nM
- increase in [Ca2+]i evoked by the substance itself (hBASMCs): Cells from all three donors responded
- maximal amplitude of the peak increase in [Ca2+]i evoked by histamine (hBASMCs; histamine alone, HBSS, n = 7): 242 ± 15 nM

Compound: CS(=O)(=O)NC(=O)CCC/C=C\C[C@H]1C(=O)C[C@@H](O)[C@@H]1/C=C/[C@@H](O)COc1ccccc1 [sulprostone, Sulprostone]
- increase in [Ca2+]i evoked by the substance itself (hBASMCs): also evoked an increase in [Ca^2+]i

Compound: bradykinin acetate (RPPGFSPFR; also: acetate salt; UniProt P01042 381-389, looked up)
- effect of removal of extracellular Ca2+ on the peak increase in [Ca2+]i evoked by the stimulus (hBASMCs): unaffected
- increase in [Ca2+]i evoked by the substance itself (hBASMCs): Cells from all three donors responded

Compound: myristoylated protein kinase inhibitor 14–22 amide (Myristoyl-SGRTGRRNA-NH2; SMILES CCCCCCCCCCCCCC(=O)N[C@@H](CO)C(=O)NCC(=O)N[C@@H](CCCNC(=N)N)C(=O)N[C@H](C(=O)NCC(=O)N[C@@H](CCCNC(=N)N)C(=O)N[C@@H](CCCNC(=N)N)C(=O)N[C@@H](CC(N)=O)C(=O)N[C@@H](C)C(N)=O)[C@@H](C)O; UniProt P61925 14-22, looked up, fragment) [PKI-myr]
- effect on the inhibition of histamine-evoked Ca2+ signals by a maximally effective concentration of isoproterenol ([1]; histamine 10 μM, n = 9): had no significant effect
- effect on the sensitivity to isoproterenol of histamine-evoked Ca2+ signals ([1]; histamine 10 μM, n = 9): Neither KT5720 nor PKI-myr significantly affected

Reference: PMC5893132, “Selective inhibition of histamine-evoked Ca^2+ signals by compartmentalized cAMP in human bronchial airway smooth muscle cells” (Cell Calcium, 2018)
